Like-named read-outs stand apart in the source and are kept apart here.
Key:
[1] = test system: NFκB nuclear translocation in HeLa cells; assay: NFκB translocation assay (TNFα mediated, high content imaging); format: cell-based; conditions: 50 μM peptide; TNFα induced NFkB translocation in HeLa cells
Experimental: The selectivity of the CPP's over NFκB was determined using a high content screening assay wherein TNFα mediated nuclear translocation of NFκB was determined by imaging.
HeLa cells were plated at 5000 cells/well in 96 well Perkin Elmer ViewPlates and incubated overnight at 37 C. Media was aspirated and compounds pre-diluted in 0.05% BSA Hanks/20 mM HEPES were added in duplicate at various concentrations for 30 minutes. Wells were stimulated with 20 μl of 150 ng/ml TNFα for 30 minutes at 37 C. Wells were aspirated and the cells were fixed with 3.7% formaldehyde solution for 15 minutes at room temperature. The fixative was removed and the plates were washed with PBS. The NFkB translocation assay, based upon detection of an antibody to p65 (Thermo-Fisher), was completed and read on the Perkin Elmer Operetta at 40×.

THP-1 cells = assay: Cytotoxicity (cell titer glo) as headed in Table 3; format: cell-based, human; conditions: cytotoxicity defined as greater than 40% loss of cells
Experimental: THP-1 cells obtained from ATCC were seeded at 50 k cells/100 μl/well in a 96 well plate (Corning Cat#3340). Peptides were dissolved in DMSO at 10 mM as stock solution, then 1:10 in water at 1 mM, mix well. R848 (Enzo Cat#ALX-420-038-M005) was dissolved in DMSO (Sigma Cat#D2650) at 10 mM. […] R848 was added to the 96-well cell plate at a final concentration of 10 μM, and cells were incubated at 37° C. for 24 h. The supernatant was tested for IL6 by Alphalisa (Perkin Elmer AL233C) as per manufacturer's instructions. Viability of the cells was measured by cell titer glo (Promega).

IRF5 (222-467, S430D) = molecular target: T1, IRF5 (222-467, S430D) (Homo sapiens, UniProt Q13568, S440D); assay: FRET IRF5 dimerization inhibition assay (TR-FRET), S430D construct; format: binding
T1 construct: 250 nM His tag IRF5(222-467, S430D); 100 nM biotin tag IRF5(222-467, S430D)
T1 sequence (Q13568 232-477 S440D): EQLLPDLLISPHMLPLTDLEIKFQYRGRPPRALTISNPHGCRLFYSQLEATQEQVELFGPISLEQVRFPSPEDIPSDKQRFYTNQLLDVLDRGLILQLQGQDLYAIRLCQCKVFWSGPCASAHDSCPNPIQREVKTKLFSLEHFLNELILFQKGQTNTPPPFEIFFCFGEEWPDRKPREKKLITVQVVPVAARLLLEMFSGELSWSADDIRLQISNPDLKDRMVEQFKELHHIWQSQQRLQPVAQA
Experimental: (§1) The following steps may then be performed: • 1) Prepare 100 nM of biotin-IRF5(S430D) (0.96 mg/ml or 32 uM,) and 250 nM His-IRF5(S430D) (1.51 mg/ml or 51 uM,) in AB1 • 2) Add 50 ul/well of solution in (1) into peptide solutions in 96-well PP plates as described above and incubate at RT for 20 min. • 3) Prepare 10 nM Eu-labeled streptavidin and 80 nM APC-labeled anti-His Ab in AB2 (AB1 w/o DTT) containing 5% DMSO and add 17 ul/well into solutions in (4). • 4) Transfer 30 ul/well into 384-well PP plate (Matrix) and incubate at 40 C for 1 day.
(§2) To test the ability of compounds to inhibit IRF5 dimerization a time-resolved fluorescence resonance energy transfer (TR-FRET) was developed. Binding of recombinant His tagged IRF5 (222-467 constructs) to recombinant biotin tagged IRF5 was measured by FRET between Europium labeled anti-GST antibody and Stretavidin-conjugated Allophycocyanin. […] The IRF5 S430 and WT (222-467) constructs were then used to test the ability of compounds to inhibit dimerization. […] Fifty microliters per well of 100 nM biotin tag IRF5(222-467, S430D) and 250 nM His tag IRF5(222-467, S430D) in Assay Buffer (50 mM Tris-HCl, pH 7.4, 100 mM NaCl, 1 mM DTT and 0.2 mg/ml BSA) were added. The samples were incubated at room temperature for 20 min. Seventeen microliters per well of detection solution containing 10 nM europium (Eu) conjugated streptavidin and 80 nM allophycocyanin (APC) conjugated anti-His antibody (Columbia Biosciences) in Assay Buffer (without DTT) were added. The samples were incubated at room temperature for 60 min followed by overnight incubation at 40 C and 30 ul per well were transferred to 384-well polystyrene plates (Matrix, Thermal Scientific) in duplicates. Assay signals were monitored by reading excitation at 340 nm and emission fluorescence at 615 nm and 665 nm on an Envision reader. TR-FRET signals were calculated by the ratio of acceptor to donor signals after subtracting both blank and donor cross-talk values from acceptor signal (Huang, K S and Vassilev, L T, Methods Enzymol., 399, 717-728 (2005)). The data were processed in Excel XLfit and the IC50 values were calculated using a nonlinear curve-fitting algorithm (four parameter equation). The data represent an average of 3 independent experiments (each run in triplicates) and the reported errors represent standard deviation (s.d.).

Wild type IRF5 (222-467) = molecular target: T2, Wild type IRF5 (222-467) (Homo sapiens, UniProt Q13568); assay: FRET IRF5 dimerization inhibition assay (TR-FRET), WT construct; format: binding
T2 construct: S430D phosphomimetic construct of IRF5 (222-467) as well as WT (222-467)
T2 sequence (Q13568 232-477): as the sequence (Q13568 232-477 S440D) above, with D209S counted along it
Experimental: as §1, §2

[2] = Table 2, WT IRF5 (222-467), read-out: WT IC50
[3] = Table 1, S430D phosphomimetic construct of IRF5 (222-467), average of 3 experiments ± s.d., read-out: S430D IC50
[4] = Table 1, WT IRF5 (222-467), average of 3 experiments ± s.d., read-out: WT IC50

Compound | NFkB selectivity (50 μM) [1] | Cytotoxicity in THP-1 cells at 10 μM (THP-1 cells) | IC50 (Wild type IRF5 (222-467); [2]) [µM] | IC50 (IRF5 (222-467, S430D); [3]) [µM] | IC50 (Wild type IRF5 (222-467); [4]) [µM] | further results
Ac-MIILIISFPKHKDWKVILVK-NH2 [SEQ ID NO 14] | No inhibition | None | – | – | – | –
Ac-YLKFIPLKRAIWLIK-NH2 [SEQ ID NO 23, Ac-YLKFIPLKRAIWLIK-NH2, reference compound] | – | – | – | – | – | IC50 (IRF5 (222-467, S430D)): > 75 µM; affinity in FRET dimerization assay (IRF5 (222-467, S430D); S430D and WT IRF5 (222-467) constructs): does not display any affinity; IC50 (Wild type IRF5 (222-467)): > 75 µM
Ac-KDLMVQWFKDGGPSSGAPPPS-NH2 [SEQ ID NO 8] | – | – | 0.79 | – | – | IC50 (IRF5 (222-467, S430D); Table 2, S430D phosphomimetic construct of IRF5 (222-467), read-out: S430D IC50): 1.68 µM
CSCC[C@H](NC(C)=O)C(=O)N[C@@H](C)C(=O)N[C@@H](CC(N)=O)C(=O)N[C@@H](CC(C)C)C(=O)NCC(=O)N[C@@H](Cc1ccc(O)cc1)C(=O)N[C@@H](Cc1c[nH]c2ccccc12)C(=O)N[C@@H](CC(C)C)C(=O)N[C@@H](CC(C)C)C(=O)N[C@@H](C)C(=O)N[C@@H](CC(C)C)C(=O)N[C@@H](Cc1ccccc1)C(=O)N[C@H](C(=O)N[C@H](C(=O)N[C@@H](Cc1ccc(O)cc1)C(=O)N[C@@H](Cc1c[nH]c2ccccc12)C(=O)N[C@H](C(=O)N[C@@H](CC(=O)O)C(=O)N[C@@H](CC(C)C)C(=O)NCC(=O)N[C@@H](CC(C)C)C(=O)N[C@H](C(=O)N[C@@H](CCCCN)C(=O)N[C@@H](CCCCN)C(=O)N[C@@H](CCCNC(=N)N)C(=O)N1CCC[C@H]1C(=O)N[C@@H](CCCCN)C(=O)N1CCC[C@H]1C(N)=O)C(C)C)[C@@H](C)O)[C@@H](C)O)C(C)C [SEQ ID NO 6] | No inhibition | None | – | 15.4 ± 5.8 | 15.3 ± 4.8 | –
Ac-IRLQISNPYLKFIPLKRAIWLIK-NH2 [SEQ ID NO 13] | No inhibition | None | – | – | – | –
Ac-IRLQISNPDLKDLMVQWFKDGGPSSGAPPPS-NH2 [SEQ ID NO 9] | – | – | 1.4 | – | – | –
CSCC[C@H](NC(C)=O)C(=O)N[C@@H](C)C(=O)N[C@@H](CC(N)=O)C(=O)N[C@@H](CC(C)C)C(=O)NCC(=O)N[C@@H](Cc1ccc(O)cc1)C(=O)N[C@@H](Cc1c[nH]c2ccccc12)C(=O)N[C@@H](CC(C)C)C(=O)N[C@@H](C)C(=O)N[C@@H](CC(C)C)C(=O)N[C@@H](CC(C)C)C(=O)N[C@@H](Cc1ccccc1)C(=O)N[C@H](C(=O)N[C@H](C(=O)N[C@@H](CCSC)C(=O)N[C@@H](Cc1c[nH]c2ccccc12)C(=O)N[C@H](C(=O)N[C@@H](CC(=O)O)C(=O)N[C@H](C(=O)NCC(=O)N[C@@H](CC(C)C)C(=O)N[C@@H](Cc1ccccc1)C(=O)N[C@@H](CCCCN)C(=O)N[C@@H](CCCCN)C(=O)N[C@@H](CCCNC(=N)N)C(=O)N1CCC[C@H]1C(=O)N[C@@H](CCCCN)C(=O)N1CCC[C@H]1C(N)=O)C(C)C)[C@@H](C)O)[C@@H](C)O)C(C)C [SEQ ID NO 5] | No inhibition | None | – | 26.6 ± 5.4 | 22.4 ± 6.2 | –
CSCC[C@H](NC(C)=O)C(=O)N[C@@H](C)C(=O)N[C@@H](CC(N)=O)C(=O)N[C@@H](CC(C)C)C(=O)NCC(=O)N[C@@H](Cc1ccc(O)cc1)C(=O)N[C@@H](Cc1c[nH]c2ccccc12)C(=O)N[C@@H](CC(C)C)C(=O)N[C@@H](CC(C)C)C(=O)N[C@@H](CC(C)C)C(=O)N[C@@H](CC(C)C)C(=O)N[C@@H](Cc1ccccc1)C(=O)N[C@H](C(=O)N[C@H](C(=O)N[C@@H](CCSC)C(=O)N[C@@H](Cc1c[nH]c2ccccc12)C(=O)N[C@H](C(=O)N[C@@H](CC(=O)O)C(=O)N[C@H](C(=O)NCC(=O)N[C@@H](CC(C)C)C(=O)N[C@@H](C)C(=O)N[C@@H](CCCCN)C(=O)N[C@@H](CCCCN)C(=O)N[C@@H](CCCNC(=N)N)C(=O)N1CCC[C@H]1C(=O)N[C@@H](CCCCN)C(=O)N1CCC[C@H]1C(N)=O)C(C)C)[C@@H](C)O)[C@@H](C)O)C(C)C [SEQ ID NO 4] | No inhibition | None | – | 26.4 ± 4.5 | 19.5 ± 4 | –
CSCC[C@H](NC(C)=O)C(=O)N[C@@H](C)C(=O)N[C@@H](CC(N)=O)C(=O)N[C@@H](CC(C)C)C(=O)NCC(=O)N[C@@H](Cc1ccc(O)cc1)C(=O)N[C@@H](Cc1c[nH]c2ccccc12)C(=O)N[C@@H](CC(C)C)C(=O)N[C@@H](Cc1ccc(O)cc1)C(=O)N[C@@H](C)C(=O)N[C@@H](CC(C)C)C(=O)N[C@@H](Cc1ccccc1)C(=O)N[C@@H](CC(C)C)C(=O)N[C@H](C(=O)N[C@@H](CCSC)C(=O)N[C@H](C(=O)N[C@H](C(=O)N[C@@H](CC(=O)O)C(=O)N[C@H](C(=O)NCC(=O)N[C@@H](CC(C)C)C(=O)N[C@@H](Cc1ccccc1)C(=O)N[C@@H](CCCCN)C(=O)N[C@@H](CCCCN)C(=O)N[C@@H](CCCNC(=N)N)C(=O)N1CCC[C@H]1C(=O)N[C@@H](CCCCN)C(=O)N1CCC[C@H]1C(N)=O)C(C)C)[C@@H](C)O)C(C)C)[C@@H](C)O [SEQ ID NO 7] | No inhibition | None | – | 34.2 ± 5.5 | 41.9 ± 6.4 | –
Ac-PFPPLPIGEEAPKDDMVRFFKDLHQYLNVV-NH2 [SEQ ID NO 10] | – | – | 0.35 | – | – | –

From patent publication US20160009772A1, “CELL PENETRATING PEPTIDES WHICH BIND IRF5” (priority 2012, published 2016)
